Like-named read-outs stand apart in the source and are kept apart here. Each block holds one compound with its values, some of them ahead of it.
Key:
[1] = target: T1, CFTR (F508del/MF-HBE cells) (Homo sapiens, UniProt P13569, DEL508-508); experiment: Ussing chamber assay of CFTR-mediated short-circuit currents (identification of potentiator compounds); format: cell-based; details: CFTR-mediated ISC in F508del/MF-HBE cells; incubated 18-24 hours at 37° C. with 10 μM (14S)-8-[3-(2-{dispiro[2.0.2.1]heptan-7-yl}ethoxy)-1H-pyrazol-1-yl]-...-2,2,4-trione, 20% human serum
T1 construct: human bronchial epithelial (HBE) cells derived from CF subjects heterozygous for F508del and a minimal function CFTR mutation; endogenous in cells; host or cells: primary human bronchial epithelial cells from CF subjects (F508del/MF genotype)
How it was run: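 F508del/minimal-function HBE cultures grown at air-liquid interface were incubated for 18–24 h at 37 °C with potentiator plus 10 μM corrector, in 20% human serum, and compounds stayed present during recording. Transepithelial ISC was recorded at 0 mV and 37 °C with 30 μM apical amiloride. CFTR current was taken as the peak response to 20 μM forskolin minus the steady state after a 20 μM inhibitor cocktail.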

T1 sequence (P13569 with tags, fused parts or gaps DEL508-508): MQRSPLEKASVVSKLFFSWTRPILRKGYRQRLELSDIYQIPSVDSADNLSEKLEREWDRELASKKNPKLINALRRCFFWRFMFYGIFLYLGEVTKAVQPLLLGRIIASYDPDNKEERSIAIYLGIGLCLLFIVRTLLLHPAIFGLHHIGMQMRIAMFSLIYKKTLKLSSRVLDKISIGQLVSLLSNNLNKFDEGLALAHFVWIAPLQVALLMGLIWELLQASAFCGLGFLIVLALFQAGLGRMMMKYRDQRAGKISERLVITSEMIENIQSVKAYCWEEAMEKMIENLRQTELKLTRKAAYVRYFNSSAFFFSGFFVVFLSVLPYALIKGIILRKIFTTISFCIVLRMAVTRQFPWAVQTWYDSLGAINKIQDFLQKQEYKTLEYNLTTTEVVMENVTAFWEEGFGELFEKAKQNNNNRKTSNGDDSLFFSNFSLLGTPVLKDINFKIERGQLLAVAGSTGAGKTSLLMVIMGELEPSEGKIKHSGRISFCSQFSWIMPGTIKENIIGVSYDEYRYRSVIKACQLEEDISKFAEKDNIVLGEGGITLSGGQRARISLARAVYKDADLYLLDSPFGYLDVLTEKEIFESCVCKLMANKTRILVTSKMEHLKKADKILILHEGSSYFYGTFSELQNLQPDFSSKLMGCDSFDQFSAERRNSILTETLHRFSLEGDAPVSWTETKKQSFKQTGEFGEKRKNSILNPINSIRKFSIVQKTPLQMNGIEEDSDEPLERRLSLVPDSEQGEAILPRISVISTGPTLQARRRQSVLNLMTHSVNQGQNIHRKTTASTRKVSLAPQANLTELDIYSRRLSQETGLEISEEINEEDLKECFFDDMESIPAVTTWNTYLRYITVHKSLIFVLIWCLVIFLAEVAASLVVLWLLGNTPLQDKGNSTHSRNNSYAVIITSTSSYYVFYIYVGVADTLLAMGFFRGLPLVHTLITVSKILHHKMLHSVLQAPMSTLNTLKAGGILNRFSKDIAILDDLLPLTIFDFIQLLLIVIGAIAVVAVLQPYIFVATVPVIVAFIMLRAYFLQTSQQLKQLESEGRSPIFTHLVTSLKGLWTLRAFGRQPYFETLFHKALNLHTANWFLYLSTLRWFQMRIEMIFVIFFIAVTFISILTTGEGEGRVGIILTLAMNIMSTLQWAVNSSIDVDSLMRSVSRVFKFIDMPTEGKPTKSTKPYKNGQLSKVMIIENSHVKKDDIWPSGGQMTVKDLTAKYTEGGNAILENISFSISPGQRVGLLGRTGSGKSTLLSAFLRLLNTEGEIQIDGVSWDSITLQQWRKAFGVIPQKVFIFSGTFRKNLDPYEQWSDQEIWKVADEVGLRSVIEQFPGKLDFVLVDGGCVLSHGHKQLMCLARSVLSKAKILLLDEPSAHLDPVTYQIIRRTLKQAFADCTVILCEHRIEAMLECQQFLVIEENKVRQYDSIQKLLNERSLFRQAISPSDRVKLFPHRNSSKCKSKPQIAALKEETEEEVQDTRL

Structure (SMILES): CC(C)(C)OC(=O)Nc1cc(C(F)(F)F)c2nc1-c1nnc(o1)C(OCc1ccccc1)(C(F)(F)F)CCCC(=O)N1CCN2CC1 (stereo not shown)
ring closure, isolated yield (from CC(C)(C)OC(=O)Nc1cc(C(F)(F)F)c(N2CCNCC2)nc1-c1nnc(C(CCCC(=O)O)(OCc2ccccc2)C(F)(F)F)o1, amide bond, 15-membered ring, HATU/DIEA, DMF, 14.5 mM, 25.0 °C, 0.083 h): 80%

Structure (SMILES): CC(C)(C)OC(=O)Nc1cc(C(F)(F)F)c2nc1-c1nnc(o1)C(OCc1ccccc1)(C(F)(F)F)CCCCC1CCN2C1 (stereo not shown)
ring closure, isolated yield (from CC(C)(C)OC(=O)Nc1cc(C(F)(F)F)c(Br)nc1-c1nnc(C(CCCCC2CCNC2)(OCc2ccccc2)C(F)(F)F)o1, snar bond, 14-membered ring, DIEA, MeCN, 6.33 mM, 80.0 °C, 16.0 h): 79%

Structure (SMILES): CC1(C)CCCC(OCc2ccccc2)(C(F)(F)F)C(=O)NNC(=O)c2nc(c(C(F)(F)F)cc2[N+](=O)[O-])NCC1 (stereo not shown)
ring closure, isolated yield (from CC(C)(CCCC(OCc1ccccc1)(C(=O)O)C(F)(F)F)CCNc1nc(C(=O)O)c([N+](=O)[O-])cc1C(F)(F)F, crosslinker bond, 15-membered ring, hydrazine/BOP/HOAt/DIEA, DMF, 2.1 mM, 30.0 °C): 84%

Structure (SMILES): CC1(C)CCCOCC(OCc2ccccc2)(C(F)(F)F)C2=NN=C(O2)c2nc(c(C(F)(F)F)cc2[N+](=O)[O-])N1 (stereo not shown)
ring closure, isolated yield (from Cc1ccc(S(=O)(=O)Oc2nc(-c3nnc(C(COCCCC(C)(C)N)(OCc4ccccc4)C(F)(F)F)o3)c([N+](=O)[O-])cc2C(F)(F)F)cc1, snar bond, 14-membered ring, DIEA, DCM, 1.47 mM): 45%

Structure (SMILES): CC1(C)COCCCC(OCc2ccccc2)(C(F)(F)F)C(=O)NNC(=O)c2nc(c(C(F)(F)F)cc2[N+](=O)[O-])N1 (stereo not shown)
ring closure, isolated yield (from CC(C)(COCCCC(OCc1ccccc1)(C(=O)O)C(F)(F)F)Nc1nc(C(=O)NN)c([N+](=O)[O-])cc1C(F)(F)F, amide bond, 15-membered ring, BOP/HOBt/DIEA, DMF, 2.78 mM, 25.0 °C, 24.0 h): 28%

Structure (SMILES): O=[N+]([O-])c1cc(C(F)(F)F)c2nc1-c1nnc(o1)C(OCc1ccccc1)(C(F)(F)F)CCC=CCC(CO)N2 (stereo not shown)
ring closure, isolated yield (from C=CCCC(OCc1ccccc1)(c1nnc(-c2nc(NC(CO)CC=C)c(C(F)(F)F)cc2[N+](=O)[O-])o1)C(F)(F)F, rcm bond, 14-membered ring, Zhan-1B, DCE, 3.01 mM, 70.0 °C, 2.0 h): 32%

Structure (SMILES): O=[N+]([O-])c1cc(C(F)(F)F)c2nc1-c1nnc(o1)[C@@](OCc1ccccc1)(C(F)(F)F)CC=CCCC(C1CC1)N2 (stereo partly shown)
ring closure, isolated yield (from C=CCCC(Nc1nc(-c2nnc([C@@](CC=C)(OCc3ccccc3)C(F)(F)F)o2)c([N+](=O)[O-])cc1C(F)(F)F)C1CC1, rcm bond, 14-membered ring, Zhan catalyst-1B, DCE, 2.49 mM, 66.0 °C, 1.6 h): 76%

Structure (SMILES): CC(C)(C)OC(=O)Nc1cc(C(F)(F)F)c2nc1-c1nnc(o1)C(OCc1ccccc1)(C(F)(F)F)CCC=CCCC1CCCN21 (mixture of isomers)
ring closure, isolated yield (from C=CCCC1CCCN1c1nc(-c2nnc(C(CCC=C)(OCc3ccccc3)C(F)(F)F)o2)c(NC(=O)OC(C)(C)C)cc1C(F)(F)F, rcm bond, 15-membered ring, Zhan-1B (24 mol%), DCE, 4.89 mM, 70.0 °C, 16.0 h): 53%

Structure (SMILES): CC(C)(C)OC(=O)Nc1cc(C(F)(F)F)c2nc1-c1nnc(o1)C(OCc1ccccc1)(C(F)(F)F)CCC=CC[C@@H]1COCC(=O)N21 (mixture of isomers)
ring closure, isolated yield (from C=CCCC(OCc1ccccc1)(c1nnc(-c2nc(N3C(=O)COC[C@H]3CC=C)c(C(F)(F)F)cc2NC(=O)OC(C)(C)C)o1)C(F)(F)F, rcm bond, 14-membered ring, Zhan-1B, DCE, 3.35 mM, 75.0 °C, 4.0 h): 73%

Structure (SMILES): CC(C)C1CCC=CC[C@](OCc2ccccc2)(C(F)(F)F)C2=NN=C(O2)c2nc(c(C(F)(F)F)cc2[N+](=O)[O-])N1 (mixture of isomers)
ring closure, isolated yield (from C=CCCC(Nc1nc(-c2nnc([C@@](CC=C)(OCc3ccccc3)C(F)(F)F)o2)c([N+](=O)[O-])cc1C(F)(F)F)C(C)C, rcm bond, 14-membered ring, Zhan catalyst-1B, DCE, 15.4 mM, 70.0 °C): 47%

Structure (SMILES): CC1(C)CC2CC=Cc3ccc(F)c(c3)C(O)(C(F)(F)F)C3=NN=C(O3)c3nc(c(C(F)(F)F)cc3N(C(=O)OC(C)(C)C)C(=O)OC(C)(C)C)N2C1 (mixture of isomers)
ring closure, isolated yield (from C=CCC1CC(C)(C)CN1c1nc(-c2nnc(C(O)(c3cc(I)ccc3F)C(F)(F)F)o2)c(N(C(=O)OC(C)(C)C)C(=O)OC(C)(C)C)cc1C(F)(F)F, cc_pd bond, 15-membered ring, Pd(OAc)2/P(o-tol)3/Et3N, MeCN, 7.06 mM, 80.0 °C, 22.0 h): 58%

Structure (SMILES): CC1(C)CC=CCC(OCc2ccccc2)(C(F)(F)F)C2=NN=C(O2)c2nc(c(C(F)(F)F)cc2[N+](=O)[O-])NC1 (mixture of isomers)
ring closure, isolated yield (from C=CCC(C)(C)CNc1nc(-c2nnc(C(CC=C)(OCc3ccccc3)C(F)(F)F)o2)c([N+](=O)[O-])cc1C(F)(F)F, rcm bond, 14-membered ring, Zhan catalyst-1B, DCE, 2.0 mM, 80.0 °C, 16.0 h): 14%

Structure (SMILES): CC1(C)CCC=CC(F)(F)C(OCc2ccccc2)C2=NN=C(O2)c2nc(c(C(F)(F)F)cc2[N+](=O)[O-])N1 (mixture of isomers)
ring closure, isolated yield (from C=CCCC(C)(C)Nc1nc(-c2nnc(C(OCc3ccccc3)C(F)(F)C=C)o2)c([N+](=O)[O-])cc1C(F)(F)F, rcm bond, 14-membered ring, Grubbs II, 1,2-dichloroethane, 1.85 mM, 75.0 °C, 1.67 h): 40%

Structure (SMILES): CC1(C)CCC=CC[C@@](OCc2ccccc2)(C(F)(F)F)C2=NN=C(O2)c2nc(c(C(F)(F)F)cc2N(C(=O)OC(C)(C)C)C(=O)OC(C)(C)C)N1 (mixture of isomers)
ring closure, isolated yield (from C=CCCC(C)(C)Nc1nc(-c2nnc([C@](CC=C)(OCc3ccccc3)C(F)(F)F)o2)c(N(C(=O)OC(C)(C)C)C(=O)OC(C)(C)C)cc1C(F)(F)F, rcm bond, 14-membered ring, Zhan catalyst-1B, toluene, 8.66 mM, 70.0 °C, 3.0 h): 62%

Structure (SMILES): CC1(C)Nc2nc(c([N+](=O)[O-])cc2C(F)(F)F)C2=NN=C(O2)[C@@](OCc2ccccc2)(C(F)(F)F)CC=CCC1OCc1ccccc1 (mixture of isomers)
ring closure, isolated yield (from C=CCC(OCc1ccccc1)C(C)(C)Nc1nc(-c2nnc([C@@](CC=C)(OCc3ccccc3)C(F)(F)F)o2)c([N+](=O)[O-])cc1C(F)(F)F, rcm bond, 14-membered ring, Zhan catalyst-1B, DCE, 2.36 mM, 70.0 °C, 18.0 h): 76%

Structure (SMILES): CCOC(=O)C1CCC=CCC(OCc2ccccc2)(C(F)(F)F)C2=NN=C(O2)c2nc(c(C(F)(F)F)cc2[N+](=O)[O-])N1 (mixture of isomers)
ring closure, isolated yield (from C=CCCC(Nc1nc(-c2nnc(C(CC=C)(OCc3ccccc3)C(F)(F)F)o2)c([N+](=O)[O-])cc1C(F)(F)F)C(=O)OCC, rcm bond, 14-membered ring, Zhan-1B, DCE, 2.96 mM, 75.0 °C, 2.0 h): 82%

Structure (SMILES): COCC1CCC=CC[C@](OCc2ccccc2)(C(F)(F)F)C2=NN=C(O2)c2nc(c(C(F)(F)F)cc2[N+](=O)[O-])N1 (mixture of isomers)
ring closure, isolated yield (from C=CCCC(COC)Nc1nc(-c2nnc([C@@](CC=C)(OCc3ccccc3)C(F)(F)F)o2)c([N+](=O)[O-])cc1C(F)(F)F, rcm bond, 14-membered ring, Zhan catalyst-1B, DCE, 3.15 mM, 60.0 °C, 5.75 h): 48%

Structure (SMILES): O=[N+]([O-])c1cc(C(F)(F)F)c2nc1-c1nnc(o1)[C@@](OCc1ccccc1)(C(F)(F)F)CC=CCCC(c1ncco1)N2 (mixture of isomers)
ring closure, isolated yield (from C=CCCC(Nc1nc(-c2nnc([C@@](CC=C)(OCc3ccccc3)C(F)(F)F)o2)c([N+](=O)[O-])cc1C(F)(F)F)c1ncco1, rcm bond, 14-membered ring, Zhan catalyst-1B, DCE, 2.9 mM, 70.0 °C, 4.25 h): 46%

EC50 [1]: < 500 nM
Structure (SMILES): [2H]C([2H])([2H])C1(C([2H])([2H])[2H])CCCCC[C@](O)(C(F)(F)F)C2=NN=C(O2)c2nc(c(C(F)(F)F)cc2N)N1 [Compound 176, (6R)-17-amino-12,12-bis(trideuteriomethyl)-6,15-bis(trifluoromethyl)-19-oxa-3,4,13,18-tetrazatricyclo[12.3.1.12,5]nonadeca-1(18),2,4,14,16-pentaen-6-ol]

EC50 [1]: < 500 nM
Structure (SMILES): Nc1cc(C(F)(F)F)c2nc1-c1nnc(o1)[C@@](O)(C(F)(F)F)CCCCCC1(CCCC1)N2 [Compound 177, (6R)-17-amino-6,15-bis(trifluoromethyl)spiro[19-oxa-3,4,13,18-tetrazatricyclo[12.3.1.12,5]nonadeca-1(18),2,4,14,16-pentaene-12,1′-cyclopentane]-6-ol]

EC50 [1]: < 500 nM
Structure (SMILES): CC1(C)CNc2nc(c(N)cc2C(F)(F)F)C2=NN=C(O2)[C@@](O)(C(F)(F)F)CCCO1 [Compound 186, (6R)-17-amino-11,11-dimethyl-6,15-bis(trifluoromethyl)-10,19-dioxa-3,4,13,18-tetrazatricyclo[12.3.1.12,5]nonadeca-1(17),2,4,14(18),15-pentaen-6-ol]

EC50 [1]: < 500 nM
Structure (SMILES): CC1(C)CCC[C@@H](O)C[C@](O)(C(F)(F)F)C2=NN=C(O2)c2nc(c(C(F)(F)F)cc2N)N1 [Compound 187, (6R,8R)-17-amino-12,12-dimethyl-6,15-bis(trifluoromethyl)-19-oxa-3,4,13,18-tetrazatricyclo[12.3.1.12,5]nonadeca-1(18),2,4,14,16-pentaene-6,8-diol]

EC50 [1]: < 500 nM
Structure (SMILES): CC1(C)CCC[C@H](O)C[C@](O)(C(F)(F)F)C2=NN=C(O2)c2nc(c(C(F)(F)F)cc2N)N1 [Compound 188, (6R,8S)-17-amino-12,12-dimethyl-6,15-bis(trifluoromethyl)-19-oxa-3,4,13,18-tetrazatricyclo[12.3.1.12,5]nonadeca-1(18),2,4,14,16-pentaene-6,8-diol]

EC50 [1]: < 500 nM
Structure (SMILES): Nc1cc(C(F)(F)F)c2nc1-c1nnc(o1)[C@@](O)(C(F)(F)F)CCCCCC1(CCCCC1)N2 [Compound 193, (6R)-17-amino-6,15-bis(trifluoromethyl)spiro[19-oxa-3,4,13,18-tetrazatricyclo[12.3.1.12,5]nonadeca-1(18),2,4,14,16-pentaene-12,1′-cyclohexane]-6-ol]

EC50 [1]: < 500 nM
Structure (SMILES): Nc1cc(C(F)(F)F)c2nc1-c1nnc(o1)[C@@](O)(C(F)(F)F)CCCCCC1(CCOCC1)N2 [Compound 205, (6R)-17-amino-6,15-bis(trifluoromethyl)spiro[19-oxa-3,4,13,18-tetrazatricyclo[12.3.1.12,5]nonadeca-1(18),2,4,14,16-pentaene-12,4′-tetrahydropyran]-6-ol]

Source: patent publication US12324802B2, “Modulators of cystic fibrosis transmembrane conductance regulator” (Vertex Pharmaceuticals Incorporated, priority 2020, dated 2025)
